The values below come from paper PMC10228259 (Nature, 2023).

Data set [1] addresses T1, chemotactile receptor for terpenes 1 (CRT1, previously CR518) (Octopus bimaculoides, UniProt A0A0L8FVQ9).
T1 sequence (A0A0L8FVQ9 21-399): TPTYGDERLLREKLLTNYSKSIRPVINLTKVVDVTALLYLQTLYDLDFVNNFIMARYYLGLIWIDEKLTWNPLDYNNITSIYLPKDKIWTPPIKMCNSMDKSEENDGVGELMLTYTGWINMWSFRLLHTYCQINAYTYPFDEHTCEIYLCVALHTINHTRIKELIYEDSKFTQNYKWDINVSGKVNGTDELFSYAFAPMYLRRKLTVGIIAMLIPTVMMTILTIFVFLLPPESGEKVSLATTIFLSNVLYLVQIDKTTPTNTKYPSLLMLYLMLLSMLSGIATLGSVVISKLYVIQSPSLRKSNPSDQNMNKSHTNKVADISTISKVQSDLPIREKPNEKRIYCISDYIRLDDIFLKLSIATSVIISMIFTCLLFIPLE
Put plainly: cryo-EM structure at […] Å. Format: cell-based.

The target of data set [2] is T2, chemotactile receptor for terpenes 1 (CRT1) (Octopus bimaculoides, UniProt A0A0L8FVQ9).
T2 sequence (A0A0L8FVQ9 21-399): T1 sequence (A0A0L8FVQ9 21-399)
Put plainly: patch clamp dose-response in HEK […] cells expressing CRT1. Format: cell-based. For orientation: In patch-clamp work, channel activity is measured electrically.

In data set [3] the target is T2, chemotactile receptor for terpenes 1 (CRT1). The description is as above. Format: cell-based. This is another data set of the same source.
Data set [4] deals with the molecule itself. The data set can be described thus: cryo-EM structure.

Where two headings read alike, the source gives them in different places.

The EC50 is the concentration needed to bring the measured effect to its halfway point. Low values mean higher potency in that assay, high ones lower potency in that assay. In turn, `C[C@@H]1CC[C@@]2(OC1)O[C@H]1C[C@H]3[C@@H]4CC=C5C[C@@H](OCCC(CO[C@@H]6O[C@H](CO)[C@@H](O[C@H]7O[C@H](CO)[C@@H](O)[C@H](O)[C@H]7O)[C@H](O)[C@H]6O)CO[C@@H]6O[C@H](CO)[C@@H](O[C@H]7O[C@H](CO)[C@@H](O)[C@H](O)[C@H]7O)[C@H](O)[C@H]6O)CC[C@]5(C)[C@H]4CC[C@]3(C)[C@H]1[C@@H]2C` [GDN, glyco-diosgenin] yielded a concentration giving a half-maximal response (EC50) in data set [1] of 0.125 µM. In data set [2], `C=C(C)[C@@H]1CCC2=CC(=O)C[C@@H](C)[C@]2(C)C1` [nootkatone] gave an EC50 of 16.1 µM. `C[C@H]1CCCC(=O)CCC/C=C/c2cc(O)cc(O)c2C(=O)O1` [zearalenone] displayed an EC50 in data set [3] of 4.8 µM.

B1: chemotactile receptor for terpenes 1 (CRT1) (receptor, Octopus bimaculoides, UniProt A0A0L8FVQ9 21-399, looked up)
chain: T1 sequence (A0A0L8FVQ9 21-399)
modifications: N-linked glycans
The stoichiometry N is a count of units in the complex or per binding partner. Regarding B1, the “stoichiometry N” value in data set [4] worked out at 5.
